Test results taken from US20090291983A1, “3-Oxoisoindoline-1-Carboxamide Derivatives as Analgesic Agents” (AstraZeneca AB, priority 2006, published 2009).

Target: T1, voltage-gated sodium channel of interest (NaV1.7) (Homo sapiens, UniProt Q15858)
T1 construct: Gene(s) encoding the full-length protein of the voltage-gated sodium channel of interest are cloned and expressed; expressed in transfected cells
Test: Whole-cell voltage clamp electrophysiology assay (automated patch-clamp)
Assay type: cell-based
Details: cells stably expressing the voltage-gated sodium channel
From the text: Gene(s) encoding the full-length protein of the voltage-gated sodium channel of interest are cloned and expressed under a suitable promoter in a suitable cell line, as well known in the art. The so constructed stable cell lines are used in screening assays to identify suitable compounds active on voltage-gated sodium channels. Suitable screening assays are as follows.
Electrophysiological recordings of sodium currents in cells stably expressing the voltage-gated sodium channel of interest confirms activity and provides a functional measure of the potency of compounds that specifically affect such channels.
Electrophysiological studies was performed using automated patch-clamp electrophysiology platforms, like IonWorks HT, IonWorks Quattro, PatchXpress, or any other suitable platform. The cell line expressing the voltage-gated sodium channel of interest was plated in appropriate well tissue plates, as provided by the manufacturer of the automated patch-clamp platforms. Suitable extracellular and intracellular buffer for such experiments was applied according to the instructions given by the manufacturer of the automated patch-clamp platforms. Cells that express the voltage-gated sodium channel protein of interest was exposed to drugs through the pipetting system integrated in the platforms. A suitable voltage stimulus protocol was used to activate the voltage-gated sodium channel proteins of interest. A suitable stimulus protocol consisted of eight voltage pulses, each to −20 mV and 50 ms in length, and separated from each other by 330 ms intervals at a potential of −90 mV, or −65 mV.
Electrophysiological studies can also be performed using the whole cell configuration of the standard patch clamp technique as described in the literature (26). In this assay, cells that express the human voltage-gated sodium channel protein of interest are exposed to the drugs by conventional microperfusion systems and a suitable voltage stimulus protocol is used to activate the voltage-gated sodium channels.

T1 sequence (Q15858 whole entry): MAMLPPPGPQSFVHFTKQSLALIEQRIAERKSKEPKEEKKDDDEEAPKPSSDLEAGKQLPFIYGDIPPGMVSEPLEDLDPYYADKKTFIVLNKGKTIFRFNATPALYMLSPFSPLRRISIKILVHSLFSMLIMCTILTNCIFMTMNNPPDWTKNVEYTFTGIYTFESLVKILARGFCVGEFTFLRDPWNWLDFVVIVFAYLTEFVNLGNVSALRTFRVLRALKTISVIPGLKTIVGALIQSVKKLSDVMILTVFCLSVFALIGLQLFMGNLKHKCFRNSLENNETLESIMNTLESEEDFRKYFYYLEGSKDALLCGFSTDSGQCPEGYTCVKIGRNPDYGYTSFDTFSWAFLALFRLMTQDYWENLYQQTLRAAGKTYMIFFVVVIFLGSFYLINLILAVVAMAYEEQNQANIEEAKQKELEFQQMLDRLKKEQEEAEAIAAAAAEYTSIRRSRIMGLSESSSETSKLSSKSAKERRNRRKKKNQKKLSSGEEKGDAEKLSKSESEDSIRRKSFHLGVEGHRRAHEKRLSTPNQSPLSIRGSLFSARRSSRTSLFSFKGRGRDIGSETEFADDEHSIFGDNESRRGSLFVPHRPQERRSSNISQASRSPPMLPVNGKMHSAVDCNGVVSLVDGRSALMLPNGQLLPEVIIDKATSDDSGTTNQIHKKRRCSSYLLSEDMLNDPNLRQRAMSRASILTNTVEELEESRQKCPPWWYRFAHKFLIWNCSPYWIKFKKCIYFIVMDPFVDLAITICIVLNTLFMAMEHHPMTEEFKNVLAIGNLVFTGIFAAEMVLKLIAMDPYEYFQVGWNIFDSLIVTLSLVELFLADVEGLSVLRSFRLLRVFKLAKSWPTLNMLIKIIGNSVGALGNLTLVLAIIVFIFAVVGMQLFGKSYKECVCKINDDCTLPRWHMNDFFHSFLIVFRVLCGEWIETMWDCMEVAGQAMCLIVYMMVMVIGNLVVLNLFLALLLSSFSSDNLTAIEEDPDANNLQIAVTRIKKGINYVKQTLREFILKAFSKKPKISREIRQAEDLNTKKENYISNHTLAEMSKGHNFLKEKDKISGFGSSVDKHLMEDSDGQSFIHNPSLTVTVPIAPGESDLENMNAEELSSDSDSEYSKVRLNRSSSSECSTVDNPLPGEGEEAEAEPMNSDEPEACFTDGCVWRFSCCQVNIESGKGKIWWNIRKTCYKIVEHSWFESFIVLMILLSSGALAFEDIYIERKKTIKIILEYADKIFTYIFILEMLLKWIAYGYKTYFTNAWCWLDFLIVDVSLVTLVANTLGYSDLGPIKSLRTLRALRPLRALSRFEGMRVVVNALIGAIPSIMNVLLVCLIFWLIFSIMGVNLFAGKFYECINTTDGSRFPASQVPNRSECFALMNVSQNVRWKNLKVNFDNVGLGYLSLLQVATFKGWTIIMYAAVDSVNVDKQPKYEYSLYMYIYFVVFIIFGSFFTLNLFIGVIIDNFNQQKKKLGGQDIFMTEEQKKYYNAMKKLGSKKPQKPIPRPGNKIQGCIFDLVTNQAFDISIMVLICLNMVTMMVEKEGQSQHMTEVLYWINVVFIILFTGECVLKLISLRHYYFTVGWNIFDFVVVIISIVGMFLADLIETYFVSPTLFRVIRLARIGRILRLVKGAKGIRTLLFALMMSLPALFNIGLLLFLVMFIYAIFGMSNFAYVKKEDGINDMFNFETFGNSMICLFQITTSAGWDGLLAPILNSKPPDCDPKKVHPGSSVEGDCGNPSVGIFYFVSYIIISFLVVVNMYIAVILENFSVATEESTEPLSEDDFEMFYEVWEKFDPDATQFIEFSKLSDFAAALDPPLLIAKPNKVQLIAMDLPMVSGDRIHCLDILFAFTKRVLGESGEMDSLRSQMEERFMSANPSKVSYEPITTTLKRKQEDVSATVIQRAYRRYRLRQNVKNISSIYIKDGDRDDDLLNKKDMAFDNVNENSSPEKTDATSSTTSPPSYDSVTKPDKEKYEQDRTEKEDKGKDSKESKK

SMILES	IC50
COc1ccccc1CN1C(=O)c2ccccc2C1C(=O)Nc1c(C)cccc1Cl (stereo not shown) [Example 2, N-(2-chloro-6-methylphenyl)-2-(2-methoxybenzyl)-3-oxoisoindoline-1-carboxamide]	0.316 µM
Cc1cccc(C)c1NC(=O)C1c2ccccc2C(=O)N1CCOc1cc(C(F)(F)F)ccc1F (stereo not shown) [Example 15, N-(2,6-dimethylphenyl)-2-{2-[2-fluoro-5-(trifluoromethyl)phenoxy]ethyl}-3-oxoisoindoline-1-carboxamide]	0.2 µM
COc1ccccc1CN1C(=O)c2ccccc2C1C(=O)Nc1c(Cl)cccc1Cl (stereo not shown) [Example 16, N-(2,6-dichlorophenyl)-2-(2-methoxybenzyl)-3-oxoisoindoline-1-carboxamide]	0.251 µM
COc1cc(F)ccc1CN1C(=O)c2ccccc2C1C(=O)Nc1c(C)cccc1C (stereo not shown) [Example 38, N-(2,6-dimethylphenyl)-2-(4-fluoro-2-methoxybenzyl)-3-oxoisoindoline-1-carboxamide]	0.1 µM
